In patent publication US20120258481A1, “CROSS-LINKING ATP ANALOGS” (WAYNE STATE UNIVERSITY, priority 2011, published 2012):

Tests used:
CK2 and α-casein = target: T1, CK2 and α-casein (Homo sapiens, UniProt P68400); experiment: Kinase-catalyzed photocrosslinking with full-length α-casein, SDS-PAGE, coomassie and CK2 western blot; format: biochemical; details: α-casein 100 μM, co-substrate 1.3 mM, 365 nm UV; CK2 immunoblot
T1 construct: purchased New England Biolabs (NEB)
Experimental: Having established phosphorylation-dependent crosslinking between kinase and peptide substrate, crosslinking with a full-length protein substrate was tested. The α-casein protein has been widely used as a model CK2 substrate in phosphoprotein analysis. Crosslinking was carried out by incubating a mixture of CK2 and α-casein with ATP-ArN3 in the presence of UV light. The products were separated by SDS-PAGE and analyzed by coomassie staining (FIG. 3a) and western blot analysis (FIG. 3b). […] Because phosphate transfer is required, a powerful feature of ATP-ArN3-mediated crosslinking is that a kinase substrate is necessarily present in the crosslinked product. Coupled with mass spectrometric analysis, phosphorylation-dependent kinase-substrate crosslinking can determine the sites of phosphorylation in addition to the effector kinase. Importantly, the crosslinking approach is appropriate for studies with cell lysates or homogenized tissue samples since natural kinase and substrate are utilized. […] The reaction products were separated by SDS-PAGE and visualized by coomassie staining, silver staining, in-gel fluorescence imaging, or western blotting with a CK2 antibody (Millipore) after transfer onto a PVDF membrane (Immobilon-PSQ, Millipore). […] The reaction mixtures were incubated for 2 hours at 30° C. before quantitative MALDI-TOF MS analysis (Bruker Daltonics), as previously described. […]

CK2 kinase = target: T2, CK2 kinase (Homo sapiens, UniProt P68400); experiment: Kinase-catalyzed photocrosslinking with peptide substrate Rho-14, in-gel fluorescence; format: biochemical; details: Rho-14 200 μM, co-substrate 1.3 mM, 365 nm UV 2 hours at 30° C.
T2 construct: purchased New England Biolabs (NEB)
T2 sequence (P68400 whole entry): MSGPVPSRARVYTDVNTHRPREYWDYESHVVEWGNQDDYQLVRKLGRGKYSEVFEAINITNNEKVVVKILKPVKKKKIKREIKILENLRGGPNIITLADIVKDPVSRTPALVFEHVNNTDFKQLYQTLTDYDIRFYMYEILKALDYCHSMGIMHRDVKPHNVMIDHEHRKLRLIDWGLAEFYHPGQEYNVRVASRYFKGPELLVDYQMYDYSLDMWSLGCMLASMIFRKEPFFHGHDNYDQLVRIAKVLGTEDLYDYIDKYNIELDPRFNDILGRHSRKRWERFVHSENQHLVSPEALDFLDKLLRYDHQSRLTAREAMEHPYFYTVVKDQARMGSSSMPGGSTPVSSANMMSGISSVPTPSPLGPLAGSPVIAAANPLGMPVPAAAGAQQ
T2 sequence (P67870 whole entry partner): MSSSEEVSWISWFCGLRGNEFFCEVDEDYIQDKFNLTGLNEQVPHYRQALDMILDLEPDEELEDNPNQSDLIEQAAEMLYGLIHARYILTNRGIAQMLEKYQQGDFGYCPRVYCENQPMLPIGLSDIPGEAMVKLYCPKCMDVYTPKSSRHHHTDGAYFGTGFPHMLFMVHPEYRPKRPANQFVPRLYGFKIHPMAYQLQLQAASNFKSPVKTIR
Experimental: Crosslinking was tested by incubating CK2 kinase and ATP-ArN3 with rhodamine-labeled CK2 peptide substrate 14 (Rho-[sequence], Rho-14). Simultaneously, the reaction mixture was irradiated with 365 nm light to afford a covalent crosslink (FIG. 1c). If kinase-substrate crosslinking occurred, the kinase was expected to become fluorescently labeled, which would be visualized by gel electrophoresis. […] As a final critical control, the crosslinked product was treated with acid to cleave the phosphoramidate bond bridging the peptide and kinase (FIG. 1c).
Photocrosslinking was initiated by irradiating with a handheld UV lamp at 365 nm for 2 hours at 30° C. The phosphoramidate bond in the crosslinked products was cleaved by adding trifluoroacetic acid (TFA) to a final concentration of 50% and incubating at 16° C. for 3 hours. The reaction products were separated by SDS-PAGE and visualized by coomassie staining, silver staining, in-gel fluorescence imaging, or western blotting with a CK2 antibody (Millipore) after transfer onto a PVDF membrane (Immobilon-PSQ, Millipore).
For the photocrosslinking experiments, CK2 (50 units/μL, 0.7 μM) was incubated with either Rho-14 (200 μM,) or full length α-casein (100 μM, Sigma), while Abl (20 units/μL, 44.4 nM) was incubated with ROX-13 (200 μM). All reactions also contained ATP or ATP-ArN3 (1.3 mM) and the manufacturers' kinase buffer.

T1 sequence (P68400 whole entry): as the sequence (P68400 whole entry) above
T1 sequence (P67870 whole entry partner): as the sequence (P67870 whole entry partner) above

Nc1ncnc2c1ncn2[C@@H]1O[C@H](COP(=O)(O)OP(=O)(O)OP(=O)(O)O)[C@@H](O)[C@H]1O [ATP, Adenosine 5′-triphosphate]
CK2-α-casein crosslinked complex (68 kDa) formation (CK2 and α-casein): crosslinked complex was absent | fluorophore labeling of CK2 (kinase-substrate crosslinking) (CK2 kinase): no fluorescence labeling was observed
